Like-named read-outs stand apart in the source and are kept apart here.

For assay [1], the target named is T1, AEA-DA lipid probe targets in Neuro2a cells (Mus musculus, UniProt P97311).
T1 sequence (P97311 1-821): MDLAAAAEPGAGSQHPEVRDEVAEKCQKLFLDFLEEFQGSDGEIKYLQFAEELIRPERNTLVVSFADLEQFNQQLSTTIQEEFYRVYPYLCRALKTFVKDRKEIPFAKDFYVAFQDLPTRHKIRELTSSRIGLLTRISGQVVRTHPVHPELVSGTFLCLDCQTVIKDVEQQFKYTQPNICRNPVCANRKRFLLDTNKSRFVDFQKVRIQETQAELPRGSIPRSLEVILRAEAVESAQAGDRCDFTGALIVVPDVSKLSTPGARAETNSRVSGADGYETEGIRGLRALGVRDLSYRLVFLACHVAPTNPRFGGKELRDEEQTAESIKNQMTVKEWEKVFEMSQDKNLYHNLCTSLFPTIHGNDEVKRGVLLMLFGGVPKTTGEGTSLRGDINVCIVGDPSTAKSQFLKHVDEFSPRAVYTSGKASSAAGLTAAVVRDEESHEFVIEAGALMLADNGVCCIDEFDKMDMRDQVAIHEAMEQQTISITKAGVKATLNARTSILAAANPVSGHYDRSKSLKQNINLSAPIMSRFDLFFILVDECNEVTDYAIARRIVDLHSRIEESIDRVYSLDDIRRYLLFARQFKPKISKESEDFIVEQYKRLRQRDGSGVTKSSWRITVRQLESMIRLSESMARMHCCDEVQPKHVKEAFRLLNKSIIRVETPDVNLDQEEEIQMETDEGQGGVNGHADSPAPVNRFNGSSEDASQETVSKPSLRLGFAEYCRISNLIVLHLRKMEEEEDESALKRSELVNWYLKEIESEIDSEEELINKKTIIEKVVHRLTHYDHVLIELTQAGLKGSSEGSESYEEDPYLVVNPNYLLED

Assay [2] concerns the target T2, AEA-DA lipid probe targets in Neuro2a cells (Mus musculus, UniProt Q8BHC4).
T2 sequence (Q8BHC4 1-231): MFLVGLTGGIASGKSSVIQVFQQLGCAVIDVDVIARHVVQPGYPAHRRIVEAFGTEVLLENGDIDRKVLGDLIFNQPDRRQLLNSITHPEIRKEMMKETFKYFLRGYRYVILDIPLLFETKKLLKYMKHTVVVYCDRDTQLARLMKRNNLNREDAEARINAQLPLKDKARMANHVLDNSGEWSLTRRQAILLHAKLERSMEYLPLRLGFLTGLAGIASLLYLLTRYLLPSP
To be noted: for SILAC ratio, DCAKD (Q8BHC4): Neuro2a cells, AEA-DA probe.

Assay [3] deals with T3, AEA-DA lipid probe targets in Neuro2a cells (Mus musculus, UniProt Q8VI75).
T3 sequence (Q8VI75 1-1082): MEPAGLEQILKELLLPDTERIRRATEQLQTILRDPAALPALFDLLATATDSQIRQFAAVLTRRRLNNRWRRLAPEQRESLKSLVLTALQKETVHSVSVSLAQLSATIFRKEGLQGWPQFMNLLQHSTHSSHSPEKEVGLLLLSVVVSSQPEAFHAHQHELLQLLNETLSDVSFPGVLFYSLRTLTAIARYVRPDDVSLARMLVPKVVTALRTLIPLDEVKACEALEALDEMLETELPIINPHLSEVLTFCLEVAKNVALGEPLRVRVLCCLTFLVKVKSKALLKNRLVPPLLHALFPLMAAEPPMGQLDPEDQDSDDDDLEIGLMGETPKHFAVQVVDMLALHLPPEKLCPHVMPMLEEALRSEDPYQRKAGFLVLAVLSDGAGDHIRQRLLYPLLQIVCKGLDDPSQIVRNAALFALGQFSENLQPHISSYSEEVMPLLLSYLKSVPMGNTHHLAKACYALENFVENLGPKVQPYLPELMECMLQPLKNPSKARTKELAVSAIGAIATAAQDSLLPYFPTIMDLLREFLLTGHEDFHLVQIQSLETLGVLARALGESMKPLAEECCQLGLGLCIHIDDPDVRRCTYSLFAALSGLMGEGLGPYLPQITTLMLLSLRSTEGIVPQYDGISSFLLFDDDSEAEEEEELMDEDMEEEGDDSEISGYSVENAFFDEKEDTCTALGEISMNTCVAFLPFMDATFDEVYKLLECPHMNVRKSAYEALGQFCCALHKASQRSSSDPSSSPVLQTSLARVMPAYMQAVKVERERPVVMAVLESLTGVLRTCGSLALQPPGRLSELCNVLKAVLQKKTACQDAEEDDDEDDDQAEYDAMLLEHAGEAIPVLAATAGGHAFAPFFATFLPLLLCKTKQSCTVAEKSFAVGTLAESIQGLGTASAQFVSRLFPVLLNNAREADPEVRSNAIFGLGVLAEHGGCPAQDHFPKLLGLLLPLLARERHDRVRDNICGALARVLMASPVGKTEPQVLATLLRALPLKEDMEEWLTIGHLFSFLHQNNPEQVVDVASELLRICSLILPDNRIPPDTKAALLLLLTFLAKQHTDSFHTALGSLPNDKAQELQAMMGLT

In assay [4] the target is T4, AEA-DA lipid probe targets in Neuro2a cells (Mus musculus, UniProt P62492).
T4 sequence (P62492 1-216): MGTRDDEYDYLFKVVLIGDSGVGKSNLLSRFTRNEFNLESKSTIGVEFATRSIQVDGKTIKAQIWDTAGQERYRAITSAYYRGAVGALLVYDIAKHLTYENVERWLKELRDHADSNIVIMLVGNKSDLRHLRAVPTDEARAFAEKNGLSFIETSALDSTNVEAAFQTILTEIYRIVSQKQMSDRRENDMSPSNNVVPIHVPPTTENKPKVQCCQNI

On to `C=CCN(C)CCCCCCOc1ccc(C(=O)c2ccc(Br)cc2)c(F)c1` [Ro 48-8071, reference compound], for which, in assay [1] (competitor 25 μM), the “SILAC ratio Mcm6” value is 0.8. In assay [2] (competitor 25 μM), the “SILAC ratio, DCAKD (Q8BHC4)” value was found to be 1.0 and the “SILAC ratio, Dcakd” value was found to be 1.0. In addition, the “SILAC ratio Ipo4” value in assay [3] (competitor 25 μM) stood at 1.0. Further, the “SILAC ratio, Rab11a” value in assay [4] (competitor 25 μM) came out at 1.3.

As for `CN1CCN(C(=O)c2[nH]c3ccc([N+](=O)[O-])cc3c2-c2ccccc2)CC1` [MJN228, (4-Methylpiperazin-1-yl)(5-nitro-3-phenyl-1H-indol-2-yl)methanone], the “SILAC ratio Mcm6” value in assay [1] (competitor 10 μM) came to 1.2; in assay [1] (competitor 25 μM), 1.4; in assay [1] (competitor 50 μM), 1.0; in assay [1] (competitor 100 μM) it was 1.6. Further, the “SILAC ratio, DCAKD (Q8BHC4)” value in assay [2] (competitor 25 μM) amounted to 1.4. Moreover, the “SILAC ratio, Dcakd” value was found to be 1.2 in assay [2] (competitor 10 μM), 1.4 in assay [2] (competitor 25 μM), 1.5 in assay [2] (competitor 50 μM) and 1.9 in assay [2] (competitor 100 μM). The “SILAC ratio Ipo4” value is 1.0 in assay [3] (competitor 10 μM), 1.3 in assay [3] (competitor 25 μM), 1.0 in assay [3] (competitor 50 μM) and 1.6 in assay [3] (competitor 100 μM). The “SILAC ratio, Rab11a” value worked out at 1.2 in assay [4] (competitor 10 μM), 1.6 in assay [4] (competitor 25 μM), 1.9 in assay [4] (competitor 50 μM) and 2.4 in assay [4] (competitor 100 μM).

Turning to `CCCCC/C=C\C/C=C\C/C=C\C/C=C\CCCC(=O)NCCO` [AEA, anandamide, reference compound], the “SILAC ratio Mcm6” value in assay [1] (competitor 200 μM) is reported as 1.3. In addition, in assay [2] (competitor 200 μM), the “SILAC ratio, DCAKD (Q8BHC4)” value was 1.9 and the “SILAC ratio, Dcakd” value came out at 1.9. Further, the “SILAC ratio Ipo4” value in assay [3] (competitor 200 μM) was 1.5. The “SILAC ratio, Rab11a” value in assay [4] (competitor 200 μM) is recorded as 1.6.

As to `CN1CCN(C(=O)c2c(-c3ccccc3)c3cc([N+](=O)[O-])ccc3n2C)CC1` [KML110, (1-Methyl-5-nitro-3-phenyl-1H-indol-2-yl)(4-methylpiperazin-1-yl)methanone], the “SILAC ratio Mcm6” value in assay [1] (competitor 25 μM) is reported as 2.0. In assay [2] (competitor 25 μM), the “SILAC ratio, Dcakd” value came out at 1.4. Besides, the “SILAC ratio Ipo4” value in assay [3] (competitor 25 μM) is reported as 1.4. Also, the “SILAC ratio, Rab11a” value in assay [4] (competitor 25 μM) was determined as 1.6.

For `O=C(/C=C/c1cccnc1)NCCCCC1CCN(C(=O)c2ccccc2)CC1` [FK-866, reference compound], the “SILAC ratio Mcm6” value in assay [1] (competitor 25 μM) turned out to be 1.1. In assay [2] (competitor 25 μM), the “SILAC ratio, DCAKD (Q8BHC4)” value is given as 1.1 and the “SILAC ratio, Dcakd” value amounted to 1.1. In assay [3] (competitor 25 μM), the “SILAC ratio Ipo4” value worked out at 1.3. Moreover, the “SILAC ratio, Rab11a” value in assay [4] (competitor 25 μM) is 1.2.

The record behind these values is US10168342B2, “Lipid probes and uses thereof” (THE SCRIPPS RESEARCH INSTITUTE, priority 2015, dated 2019).
